According to US9701670B2, “Pyrazolyl-ureas as kinase inhibitors” (RESPIVERT LIMITED, priority 2013, dated 2017):
Blank lines part the entries; values can stand above or below the compound they belong to.

Key:
[1] = biological target: T1, p38 MAPKα isoform (MAPK14) (Homo sapiens (Human), UniProt Q16539); experiment: p38 MAPKα enzyme inhibition (FRET, Z-LYTE), Method 2; format: biochemical; conditions: Method 2, different laboratory (Table 4a2)
Method: (§1) The enzyme inhibitory activities of compounds disclosed herein are determined by FRET using synthetic peptides labelled with both donor and acceptor fluorophores (Z-LYTE, Invitrogen Ltd., Paisley, UK).
The inhibitory activities of test compounds against the p38 MAPKα isoform (MAPK14: Invitrogen), are evaluated indirectly by determining the level of activation/phosphorylation of the down-stream molecule, MAPKAP-K2. The p38 MAPKα protein (80 ng/mL, 2.5 μL) is mixed with the test compound (2.5 μL of either 4 μg/mL, 0.4 μg/mL, 0.04 μg/mL or 0.004 μg/mL) for 2 hr at RT. […] The mixture is incubated for 1 hr at RT. Development reagent (protease, 5 μL) is added for 1 hr prior to detection in a fluorescence microplate reader (Varioskan® Flash, ThermoFisher Scientific).
(§2) In all cases, the site-specific protease cleaves non-phosphorylated peptide only and eliminates the FRET signal. Phosphorylation levels of each reaction are calculated using the ratio of coumarin emission (donor) over fluorescein emission (acceptor), for which high ratios indicate high phosphorylation and low ratios indicate low phosphorylation levels.

[2] = tested on: mice; experiment: Mouse cigarette smoke model (macrophage and neutrophil accumulation in BALF); format: in vivo; conditions: tobacco smoke, mice; for Cell numbers in BAL Macrophage / Cell numbers in BAL Neutrophil: mean ± SEM, N = 6
Description: The result of treatment with compound Example (8) on macrophage and neutrophil accumulation in BALF in the mouse cigarette smoke model was investigated (Table 5).

[3] = biological target: T1, p38 MAPKα isoform (MAPK14); experiment: p38 MAPKα enzyme inhibition (FRET, Z-LYTE), Method 1; format: biochemical; conditions: Method 1 (Table 4a1)
[4] = biological target: T2, GSK 3α (Homo sapiens (Human), UniProt P49840); experiment: GSK 3α enzyme inhibition (FRET, Z-LYTE), Method 2; format: biochemical; conditions: Method 2, different laboratory (Table 4a2); read-out: IC50 Values for Enzyme Inhibition GSK3α
T2 sequence (P49840 whole entry): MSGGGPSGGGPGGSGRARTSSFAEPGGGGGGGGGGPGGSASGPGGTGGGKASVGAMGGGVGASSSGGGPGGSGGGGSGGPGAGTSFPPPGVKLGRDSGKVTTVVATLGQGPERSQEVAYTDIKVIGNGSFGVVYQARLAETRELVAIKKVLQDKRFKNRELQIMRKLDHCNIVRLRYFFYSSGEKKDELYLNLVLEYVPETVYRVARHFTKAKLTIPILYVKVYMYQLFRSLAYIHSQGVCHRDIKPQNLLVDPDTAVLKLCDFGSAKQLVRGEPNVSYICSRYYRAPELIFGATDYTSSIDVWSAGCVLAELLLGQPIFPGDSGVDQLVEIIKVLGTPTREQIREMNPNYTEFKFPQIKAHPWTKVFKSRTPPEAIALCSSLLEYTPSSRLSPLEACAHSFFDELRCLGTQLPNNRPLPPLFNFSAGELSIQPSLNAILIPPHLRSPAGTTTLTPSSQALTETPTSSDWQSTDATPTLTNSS
Method: as §1
(§3) The inhibitory activities of compounds of the invention against the GSK 3α enzyme isoform (Invitrogen), are evaluated by determining the level of activation/phosphorylation of the target peptide. The GSK3-α protein (500 ng/mL, 2.5 μL) is mixed with the test compound (2.5 μL at either 4 μg/mL, 0.4 μg/mL, 0.04 μg/mL, or 0.004 μg/mL) for 2 hr at RT. The FRET peptide (8 μM, 2.5 μL), which is a phosphorylation target for GSK3α, and ATP (40 μM, 2.5 μL) are then added to the enzyme/compound mixture and the resulting mixture incubated for 1 hr. Development reagent (protease, 5 μL) is added for 1 hr prior to detection in a fluorescence microplate reader (Varioskan® Flash, ThermoFisher Scientific).
as §2

[5] = tested on: Differentiated U937 cells; experiment: (l) Cell viability: MTT assay; format: cell-based, human; conditions: 1 μg/mL
Outline: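 MTT read-out (1 h, absorbance 550 nm) on d-U937 cells after pre-incubation with 1 or 10 μg/mL compound under two regimes: 4 h, 5% FCS, or 24 h, 10% FCS RPMI1640. Values are percent loss of viability relative to vehicle (0.5% DMSO), so increases are reported as negative.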

[6] = tested on: Balb/c mice; experiment: (A) LPS-induced neutrophil accumulation in mice; format: in vivo, mouse; conditions: mice; for Neutrophil numbers in BAL: N = 8
Method: […] At T=0, mice are placed into an exposure chamber and exposed to LPS (7.0 mL, 0.5 mg/mL solution in PBS) for 30 min). After a further 8 hr the animals are anesthetized, their tracheas cannulated and BALF extracted by infusing and then withdrawing from their lungs 1.0 mL of PBS via the tracheal catheter. Total and differential white cell counts in the BALF samples are measured using a Neubaur haemocytometer. Cytospin smears of the BALF samples are prepared by centrifugation at 200 rpm for 5 min at RT and stained using a DiffQuik stain system (Dade Behring). Cells are counted using oil immersion microscopy. Data for neutrophil numbers in BAL are shown as mean±S.E.M. (standard error of the mean). The percentage inhibition of neutrophil accumulation is calculated for each treatment relative to vehicle treatment.

[7] = biological target: T2, GSK 3α; experiment: GSK 3α enzyme inhibition (FRET, Z-LYTE), Method 1; format: biochemical; conditions: Method 1 (Table 4a1); read-out: IC50 Values for Enzyme Inhibition GSK3α
Method: as §1, §3, §2

[8] = Cryopreserved hepatocyte stability; format: in vitro ADME; conditions: scaled from intrinsic clearance, mean of two experiments
Method: (§4) Formulae CIint(tissue clearance) mL/min/kg=[0.693/t½(min)]×[1/microsomal protein concentration mg/mL]×[mg microsomes/g liver]×[g liver/kg body weight] […] The incubations were performed at 37° C. with 100 μL samples taken from the incubation, at 0, 10, 20, 45 and 90 minutes, and reactions terminated by addition of 100 μL of acetonitrile containing carbamazepine as analytical internal standard. […] Half-life values were calculated from the relationship T1/2(min)=−0.693/λ • where λ was the slope of the Ln concentration vs time curve. • Standard compounds testosterone, midazolam and 4-methylumbelliferone are included in the assay design.
CIint(Tissue Clearance) mL/min/kg=[0.693/t½(min)]×[1/hepatocyte concentration (million cells/mL)]×[million cells/g liver]×[g liver/kg body weight] CIint(Hepatic clearance) mL/min/kg=hepatic blood flow×CIint/(hepatic blood flow+CIint) Hepatic extraction ratio (Eh)=CIint(Hepatic clearance) mL/min/kg/hepatic blood flow (mL/min/kg)

[9] = Hepatic microsomal stability; format: in vitro ADME; conditions: scaled from intrinsic clearance, mean of two experiments
Method: (§5) • Microsomal stability assays were performed with incubations of test compounds at 0.1 μM (n=2, final DMSO concentration 0.25%), and carried out using pooled human, dog and rat hepatic microsomes from Xenotech (Lots 1210153, 0810143 and 1110042, respectively) at 0.25 mg protein/mL in the presence of co-factor, NADPH. The incubations were performed at 37° C. with 100 μL aliquots taken from the incubation, at 0, 2, 5, 10 and 20 minutes and reactions terminated by addition of 100 μL of acetonitrile containing carbamazepine as analytical internal standard. […] Half-life values were calculated from the relationship T1/2(min)=−0.693/λ • where λ was the slope of the Ln concentration vs time curve. • The in vitro intrinsic clearance, CIint (mL/min/kg), was calculated and scaled to hepatic extraction ratios using the following scaling parameters and formulae.
as §4

[10] = tested on: β-catenin in d-U937 cells; experiment: (m) Accumulation of β catenin in d-U937 cells; format: cell-based, human
Outline: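 PMA-differentiated U937 macrophage-type cells (100 ng/mL, 48–72 hr) were exposed to test compound or vehicle for 18 hr, then fixed. β-catenin was measured by cell ELISA (HRP/TMB, OD450-655) and normalised to crystal violet OD595. Signals below 15% of the standard control were designated "-ve".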

[11] = Hepatic microsomal stability; format: in vitro ADME, human
Method: as §5, §4

T1 sequence (Q16539 whole entry, canonical isoform): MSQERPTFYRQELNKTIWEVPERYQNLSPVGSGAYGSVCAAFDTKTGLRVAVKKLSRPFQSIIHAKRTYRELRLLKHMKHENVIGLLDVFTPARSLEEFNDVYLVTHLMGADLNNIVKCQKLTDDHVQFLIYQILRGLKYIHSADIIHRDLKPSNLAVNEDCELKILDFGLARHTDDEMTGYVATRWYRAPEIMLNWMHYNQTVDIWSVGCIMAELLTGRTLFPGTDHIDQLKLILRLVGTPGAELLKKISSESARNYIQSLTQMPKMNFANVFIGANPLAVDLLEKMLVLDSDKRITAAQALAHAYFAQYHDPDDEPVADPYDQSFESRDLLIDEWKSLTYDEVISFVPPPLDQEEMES

IC50 [1]: 44 nM | IC50 [3]: 2 nM | IC50 [4]: 13200 nM
SMILES: COc1cc(Nc2nccc(Oc3ccc(NC(=O)Nc4cc(C(C)C)nn4-c4ccc(C)cc4)c4ccccc34)n2)cc(C(=O)NCCN2CCOCC2)c1 [Example 8, 3-((4-((4-(3-(3-Isopropyl-1-(p-tolyl)-1H-pyrazol-5-yl)ureido)naphthalen-1-yl)oxy)pyrimidin-2-yl)amino)-5-methoxy-N-(2-morpholinoethyl)benzamide]
% inhibition Macrophage in BAL ([2]; 1.6 μg/mL): 29% | % inhibition Neutrophil in BAL ([2]; 1.6 μg/mL): 28% | Cell numbers in BAL Macrophage ([2]; 1.6 μg/mL): 14.0 ± 0.50 ×10^4/mL | Cell numbers in BAL Neutrophil ([2]; 1.6 μg/mL): 13.6 ± 0.51 ×10^4/mL | % inhibition Macrophage in BAL ([2]; 8 μg/mL): 50% | % inhibition Neutrophil in BAL ([2]; 8 μg/mL): 49% | Cell numbers in BAL Macrophage ([2]; 8 μg/mL): 10.9 ± 0.42 ×10^4/mL | Cell numbers in BAL Neutrophil ([2]; 8 μg/mL): 10.2 ± 0.33 ×10^4/mL | % inhibition Macrophage in BAL ([2]; 40 μg/mL): 67% | % inhibition Neutrophil in BAL ([2]; 40 μg/mL): 61% | Cell numbers in BAL Macrophage ([2]; 40 μg/mL): 8.3 ± 0.38 ×10^4/mL | Cell numbers in BAL Neutrophil ([2]; 40 μg/mL): 8.2 ± 0.58 ×10^4/mL | % inhibition Macrophage in BAL ([2]; 200 μg/mL): 83% | % inhibition Neutrophil in BAL ([2]; 200 μg/mL): 77% | Cell numbers in BAL Macrophage ([2]; 200 μg/mL): 5.9 ± 0.31 ×10^4/mL | Cell numbers in BAL Neutrophil ([2]; 200 μg/mL): 5.6 ± 0.39 ×10^4/mL | Cell viability at time point in d-U937 cells 4 h [5]: −ve (−ve and +ve indicate that the value is below and above respectively, the no significant effect threshold, defined as 30% inhibition at 1 μg/mL at the time point indicated.) | Cell viability at time point in d-U937 cells 24 h [5]: −ve (−ve and +ve indicate that the value is below and above respectively, the no significant effect threshold, defined as 30% inhibition at 1 μg/mL at the time point indicated.) | % inhibition of neutrophil numbers in BAL ([6]; 0.05 mg/mL, pre-dose time 2 hr): 40% | Neutrophil numbers in BAL ([6]; 0.05 mg/mL, pre-dose time 2 hr, mean +/− SEM): 9.6 ± 2.0 ×10^5/mL | % inhibition of neutrophil numbers in BAL ([6]; 0.2 mg/mL, pre-dose time 2 hr): 59% | Neutrophil numbers in BAL ([6]; 0.2 mg/mL, pre-dose time 2 hr, mean +/− SEM): 6.6 ± 1.4 ×10^5/mL | % inhibition of neutrophil numbers in BAL ([6]; 0.2 mg/mL, pre-dose time 12 hr): 43% | Neutrophil numbers in BAL ([6]; 0.2 mg/mL, pre-dose time 12 hr, mean +/− SEM): 9.1 ± 1.7 ×10^5/mL | % inhibition of neutrophil numbers in BAL ([6]; 0.2 mg/mL, pre-dose time 18 h): 9% | Neutrophil numbers in BAL ([6]; 0.2 mg/mL, pre-dose time 18 h, mean +/− SEM): 14.6 ± 2.5 ×10^5/mL | % inhibition of neutrophil numbers in BAL ([6]; 1.0 mg/mL, pre-dose time 2 hr): 77% | Neutrophil numbers in BAL ([6]; 1.0 mg/mL, pre-dose time 2 hr, mean +/− SEM): 3.7 ± 0.61 ×10^5/mL | % inhibition of neutrophil numbers in BAL ([6]; test substance at 0.2 mg/mL, dosed 8 hr pre-LPS challenge): 57% | Neutrophil numbers in BAL ([6]; test substance at 0.2 mg/mL, dosed 8 hr pre-LPS challenge, +/−SEM): 6.1 ± 1.2 ×10^5/mL

IC50 [7]: 13000 nM | IC50 [3]: 45 nM
SMILES: COc1cc(Nc2nccc(Oc3ccc(NC(=O)Nc4cc(C(C)C)nn4-c4ccc(C)cc4)c4ccccc34)n2)cc(C(=O)NCCO)c1 [Example 63, N-(2-hydroxyethyl)-3-((4-((4-(3-(3-isopropyl-1-(p-tolyl)-1H-pyrazol-5-yl)ureido)naphthalen-1-yl)oxy)pyrimidin-2-yl)amino)-5-methoxybenzamide]
Cell viability at time point in d-U937 cells 4 h [5]: −ve (−ve and +ve indicate that the value is below and above respectively, the no significant effect threshold, defined as 30% inhibition at 1 μg/mL at the time point indicated.) | Cell viability at time point in d-U937 cells 24 h [5]: −ve (−ve and +ve indicate that the value is below and above respectively, the no significant effect threshold, defined as 30% inhibition at 1 μg/mL at the time point indicated.)

IC50 [1]: 437 nM | Mean hepatic extraction ratio (Eh) ([8]; dog hepatocytes): 0.73 | Mean hepatic extraction ratio (Eh) ([8]; human hepatocytes): <0.61 | Mean hepatic extraction ratio (Eh) ([8]; rat hepatocytes): <0.44 | Mean hepatic extraction ratio (Eh) ([9]; dog hepatic microsomes): 0.91 | Mean hepatic extraction ratio (Eh) ([9]; rat hepatic microsomes): 0.77 | hepatic clearance ([11]; conclusion from Tables 9a and 9b (hepatic microsomes and hepatocytes)): high hepatic clearance | Mean hepatic extraction ratio (Eh) ([11]; human hepatic microsomes, scaled from intrinsic clearance, mean of two experiments): 0.93 | IC50 [4]: 12600 nM
SMILES: C#Cc1cc(Nc2nccc(Oc3ccc(NC(=O)Nc4cc(C(C)(C)C)nn4-c4ccc(N(C)C)cc4)c4ccccc34)n2)cc(C(=O)NCCN2CCOCC2)c1 [Example 80, 3-((4-((4-(3-(3-(tert-Butyl)-1-(4-(dimethylamino)phenyl)-1H-pyrazol-5-yl)ureido)naphthalen-1-yl)oxy)pyrimidin-2-yl)amino)-5-ethynyl-N-(2-morpholinoethyl)-benzamide]
% β-catenin induction ([10]; 1 μg/mL test compound): 14% | % β-catenin induction ([10]; 5 μg/mL test compound): 8%
